Results: article PMC11965064, “Identification and verification of methylenetetrahydrofolate dehydrogenase 1-like protein as the binding target of natural product pseudolaric acid A” (Natural Products and Bioprospecting, 2025)

Target: T1, methylenetetrahydrofolate dehydrogenase 1-like (MTHFD1L) (Homo sapiens, UniProt Q6UB35)
T1 construct: MTHFD1L (68–978 AA), recombinant from E. coli, MBP tag cleaved with thrombin
T1 sequence (Q6UB35 68-978): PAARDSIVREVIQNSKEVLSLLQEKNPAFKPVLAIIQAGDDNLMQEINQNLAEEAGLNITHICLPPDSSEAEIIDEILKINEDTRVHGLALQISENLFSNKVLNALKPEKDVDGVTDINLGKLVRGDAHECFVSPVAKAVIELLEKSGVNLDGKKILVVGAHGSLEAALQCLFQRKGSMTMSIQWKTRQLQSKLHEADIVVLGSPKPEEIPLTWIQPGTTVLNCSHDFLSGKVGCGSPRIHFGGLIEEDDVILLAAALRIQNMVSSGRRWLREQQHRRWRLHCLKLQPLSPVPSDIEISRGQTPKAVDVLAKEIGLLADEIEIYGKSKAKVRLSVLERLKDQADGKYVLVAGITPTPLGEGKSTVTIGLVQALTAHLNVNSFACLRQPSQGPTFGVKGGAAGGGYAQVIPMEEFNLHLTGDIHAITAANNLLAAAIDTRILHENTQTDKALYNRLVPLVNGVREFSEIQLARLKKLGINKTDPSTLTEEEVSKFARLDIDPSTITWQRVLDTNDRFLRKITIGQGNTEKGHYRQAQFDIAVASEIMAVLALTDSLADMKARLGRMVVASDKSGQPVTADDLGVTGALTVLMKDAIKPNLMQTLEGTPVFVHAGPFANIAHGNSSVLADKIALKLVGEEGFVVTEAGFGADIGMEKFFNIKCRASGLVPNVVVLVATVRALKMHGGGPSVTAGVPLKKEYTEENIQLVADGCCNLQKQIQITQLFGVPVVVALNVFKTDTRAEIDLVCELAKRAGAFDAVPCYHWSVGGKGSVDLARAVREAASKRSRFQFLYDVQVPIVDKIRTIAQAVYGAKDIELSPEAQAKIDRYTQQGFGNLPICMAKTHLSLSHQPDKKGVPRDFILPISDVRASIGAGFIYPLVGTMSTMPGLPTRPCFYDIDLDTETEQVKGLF
Test: SPR (Biacore T200, steady-state affinity); supported by NMR STD, DARTS and ABPP competition
Type: binding

CC(=O)O[C@]12CCC(C)=CC[C@]13CC[C@H]2[C@@](C)(/C=C/C=C(\C)C(=O)O)OC3=O [PAA, pseudolaric acid A]
Kd: ~4.05 µM
